Assay results from patent US8759095B2, “Diagnostic and therapeutic tools for diseases altering vascular function” (Universiteit Maastricht, priority 2007, dated 2014).

Legend:
[1] = system: endothelial glycocalyx; design: species or system human; conditions: in vivo
[2] = system: endothelial glycocalyx; conditions: in vivo; cited from earlier work
[3] = system: endotoxin-induced inflammatory reactions; assay: Clinical symptoms and vital signs after intravenous endotoxin challenge in healthy male volunteers; format: in vivo, human
Procedure: (§1) Twentyone healthy Caucasian male volunteers were studied. […] Participants had no history of cardiovascular disease. […] All experiments were performed after an overnight fast.

[4] = system: endothelial glycocalyx; assay: Estimation of systemic glycocalyx volume (Dextran 40 distribution volume minus circulating plasma volume) after endotoxin challenge; format: in vivo, human; design: haematocrit values: unit not given here; conditions: 4 hours after endotoxin infusion
Procedure: as §1
Systemic glycocalyx volume was estimated as previously published by subtracting circulating plasma volume from the intravascular distribution volume of the glycocalyx permeable tracer Dextran 40 (Nieuwdorp M et al. 2006. Diabetes 55: 480-6; Suffredini et al. 1999, supra). Circulating plasma volume was calculated with a previously published method (Orth et al. 1998. Anesth Analg 87: 1234-8). The intravascular distribution volume of labelled autologous erythrocytes was used to quantify the circulating blood volume. Blood was drawn and centrifuged at 1,330 rpm for 5 minutes. Subsequently, sodium fluorescein (fluorescein-di-Na 25%, 250 mg/ml, AZUA Pharmacy, Amsterdam, the Netherlands) was added to the erythrocyte fraction for 5 minutes. After careful washing, labelled erythrocytes were resuspended in saline to the initial volume (60 ml) and re-infused. Subsequently, blood was drawn at 4, 5, 6, and 7 minutes after infusion. The fraction of labelled erythrocytes in the total erythrocyte pool was used to estimate the circulating erythrocyte volume (VERY). Pre-injection unlabeled erythrocytes served as negative control. The fraction of labelled erythrocytes in the blood was measured using a FACScan analyzer (FACS Calibur®, Becton Dickinson, Mountain View, USA). At least 100,000 cells were counted. Data were analyzed by Cellquest (Becton Dickinson, San Jose, Calif., USA). Haematocrit (Ht) was measured after centrifugation of heparinized blood in a Hettich-Haematokrit centrifuge at 10,000 rpm during 5 minutes (Hettich, Tuttlingen, Germany). Circulating plasma volume was calculated from VERY and large vessel Ht by the following formula: circulating plasma volume=([1−Ht]×VERY)/Ht.
Dextran 40 (Rheomacrodex; NPBI International, Emmercompascuum, the Netherlands) was used as a probe to estimate total intravascular volume, which includes the glycocalyx compartment. A bolus of 10 ml Dextran 1 (Promiten; NPBI International, Emmer-compascuum, the Netherlands) was injected to attenuate the risk of anaphylactic reactions prior to Dextran 40 infusion. 100 ml Dextran 40 was injected intravenously, followed by repeated blood sampling at 5, 7, 10, 15, 20, and 30 minutes. Dextran 40 concentration was calculated by measuring the increase in glucose concentration in the post infusion samples after hydrolyzation of Dextran 40 glucose polymers (Van Kreel et al. 1998. Clin Chim Acta 275: 71-80). Glucose concentration per time point was assessed in duplicate using the hexokinase method (Gluco-quant, Hitachi 917; Hitachi). To determine the initial intravascular distribution volume of Dextran 40, the concentration of Dextran 40 at the time of injection was estimated by exponential fitting of the measured Dextran 40 concentrations. Exponential time constants (τ [min]) were used to determine Dextran 40 systemic clearance rates (τ^−1 min^−1).

[5] = system: sublingual microcirculation; assay: Microvascular glycocalyx / capillary density by OPS imaging of the sublingual microcirculation after endotoxin challenge; format: in vivo, human; conditions: upon endotoxin challenge; from 59±7 at baseline; p<0.01
Procedure: as §1
Thickness of endothelial glycocalyx in individual capillary blood vessels was measured by orthogonal polarization spectral (OPS) imaging of the sublingual microcirculation (Cytometrics, Philadelphia, Pa., USA) as previously published (Nieuwdorp et al. 2006, supra; Nieuwdorp et al. 2006. Diabetes 55: 1127-32). In short, the width of flowing erythrocytes was measured in 5 individual capillaries before and immediately after capillary leukocyte passage. In healthy capillaries, the glycocalyx limits capillary blood filling by separating erythrocytes from the luminal endothelial surface, which is known as the red cell exclusion zone. […] Images sized 728×576 pixels were recorded were collected with a 5× objective providing a 325× magnification at a frame rate of 25/second. […] The anatomical capillary diameter and the width of the flowing erythrocyte column were measured using digital calipers prior to and after spontaneous capillary leukocyte passage. Per participant, glycocalyx dimension was determined in at least 5 capillaries. […] In addition as indication of capillary density, the number of capillaries per field was counted.

[6] = system: glycocalyx shedding; assay: Plasma glycocalyx components (hyaluronan, heparan sulphate) and hyaluronidase activity after endotoxin challenge; format: in vivo, human
Procedure: as §1

[7] = system: TNFα-induced inflammatory responses; assay: Plasma inflammatory markers (IL-6, CRP) and circulating leukocytes after endotoxin challenge; format: in vivo, human
Procedure: as §1

[8] = system: monocytes; assay: Leukocyte differentiation and monocyte flow cytometry after endotoxin challenge; format: in vivo, human
Procedure: as §1
Whole blood samples were collected in pyrogen-free lithium-heparin tubes and then incubated for 10 min with 9 volumes ice-cold erythrocyte lysis buffer and centrifuged for 10 min at 4° C. Remaining cells were washed twice with ice-cold PBS. For flow cytometric analysis 0.5×10^6 cells were incubated in FACS buffer mixed with antibody. All reagents were titrated to obtain optimal results as recommended by the manufacturers. Cell surface staining was performed with Fluorescein Isothiocyanate (FITC) labelled mouse anti-human CD14 (IgG2a), anti-human Allophycocyanin (APC) labelled CD18 (IgG1) and Phycoerythrin (PE) labelled anti-human CD11b (IgG1) and CD62L (IgG1) (R&D Systems, San Jose, Calif., USA). Appropriate isotype control antibodies were used to correct for non-specific antibody binding. After staining, the cells were washed, fixed in 4% paraformaldehyde, and analyzed by flow cytometry using a FACS Calibur flow cytometer. Data were analyzed with CellQuest software (Becton Dickinson, Franklin Lakes, N.J., USA).

[9] = system: thrombin generation and fibrinolysis; assay: Coagulation and fibrinolysis markers (prothrombin fragment F1+2, D-dimer) after endotoxin challenge; format: in vivo, human; conditions: p<0.05
Procedure: as §1

O=[N+]([O-])OCC(CO[N+](=O)[O-])O[N+](=O)[O-] [nitroglycerine]
status of the glycocalyx (RBCW, glycocalyx width; FIGS. 5A and 5B) [1]: a clear distinction between the status of the glycocalyx in treated and untreated subjects
effect on the glycocalyx as known [2]: known to cause damage to the glycocalyx

Etanercept
body temperature ([3]; 4 hours after endotoxin infusion, from 36.6±0.5 at baseline, ns): 37.3±0.5 °C
heart rate ([3]; 4 hours after endotoxin infusion, from 62±4 at baseline, ns): 69±3
diastolic blood pressure ([3]; 4 hours after endotoxin infusion, from 69±6 at baseline, ns): 67±6 mm Hg
systolic blood pressure ([3]; 4 hours after endotoxin infusion, from 125±7 at baseline, ns): 123±10 mmHg
clinical symptoms of endotoxemia (chills, headache, myalgia, nausea) ([3]; after endotoxin infusion, saline versus Etanercept group, data not shown): more frequently and more intensive in the saline group compared to the Etanercept group
systemic glycocalyx volume ([4]; baseline 1.7±0.5, p<0.01): 1.1 ± 0.2 L
systemic Dextran 40 clearance rate ([4]; from 0.009±0.002 at baseline, ns): 0.009 ± 0.001 min⁻¹
haematocrit values ([4]; from 0.43±0.02 at baseline, ns): 0.42±0.02
circulating plasma volume ([4]; from 2.9±0.5 at baseline, ns): 2.8 ± 0.6 L
Dextran 40 distribution volume ([4]; from 4.6±0.6 at baseline, p<0.05): 3.9 ± 0.5 L
rate of Dextran 40 plasma clearance (FIG. 1B) ([4]; saline group versus Etanercept group): increased in the saline group as compared with Etanercept group
capillary density (number of capillaries per field) [5]: 43±15
plasma hyaluronidase activity, change compared to baseline ([6]; 4 hours after endotoxin infusion, ns): −8±14%
plasma heparan sulphate levels ([6]; 24 hours after endotoxin infusion, p<0.01 versus saline group): 7.4 ± 1.5 µg/mL
heparan sulphate plasma levels ([6]; during the 4 hours after endotoxin challenge, from 5.4±1.3, ns): 5.1 ± 1.0 µg/mL
plasma hyaluronan levels ([6]; within first hour after endotoxin infusion, from 58±13, p<0.05): 46 ± 10 ng/mL
number of circulating leukocytes compared to baseline ([7]; 4 hours after endotoxin, both treatment groups): doubled
plasma CRP ([7]; after endotoxin challenge, from 0.6±0.4 at baseline, p<0.01): 16.0 ± 3.4 mg/L
plasma IL-6 ([7]; after endotoxin challenge, from 4.6±3.1 at baseline, p<0.05): 127 ± 98 pg/mL
reduction of monocyte count ([8]; 4 hours after endotoxin infusion, p<0.05 compared to baseline): 51±32%
change in percentage of CD62L+ (L-selectin) expressing monocytes ([8]; 4 hours after endotoxin, p<0.05 versus saline group): +66±42%
CD14+ monocyte counts ([8]; after endotoxin infusion, ns between groups): 26±13%
CD11b+/CD18+ (Mac-1 complex) monocyte count, median ([8]; after endotoxin infusion, p<0.01 versus saline): 0.65±0.1
D-dimer ([9]; from 0.2±0.1 at baseline): 0.3 ± 0.1 mg/L
prothrombin activation fragment F1+2 ([9]; from 0.3±0.1 at baseline): 2.1 ± 0.9 nmol/L
